Experimental data published in PMC7703542 (Proceedings of the National Academy of Sciences of the …, 2020).

Target: PdF1 γCC (PdF1) (Paracoccus denitrificans, UniProt A1B8N8+A1B8P0)
Assay: single-molecule rotation assay, Mg-ADP inhibited pauses
Type: biochemical
Conditions: 1 µM ADP with 1 µM ATP, no ADP-trapping system, 0.1% LDAO

Sequence of PdF1 γCC (PdF1) (A1B8P0 whole entry): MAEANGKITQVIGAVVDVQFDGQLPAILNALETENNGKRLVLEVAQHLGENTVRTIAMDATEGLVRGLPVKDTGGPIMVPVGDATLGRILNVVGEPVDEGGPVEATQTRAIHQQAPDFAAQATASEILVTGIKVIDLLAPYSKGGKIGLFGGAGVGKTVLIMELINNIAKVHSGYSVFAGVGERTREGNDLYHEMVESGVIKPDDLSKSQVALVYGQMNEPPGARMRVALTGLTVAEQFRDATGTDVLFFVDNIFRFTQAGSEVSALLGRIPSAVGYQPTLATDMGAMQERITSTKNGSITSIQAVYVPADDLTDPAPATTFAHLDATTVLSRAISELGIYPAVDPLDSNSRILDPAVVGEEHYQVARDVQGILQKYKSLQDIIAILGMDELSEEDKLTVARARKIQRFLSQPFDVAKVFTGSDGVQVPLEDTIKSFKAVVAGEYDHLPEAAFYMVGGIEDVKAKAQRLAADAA
Sequence of PdF1 γCC (PdF1) (A1B8N8 whole entry): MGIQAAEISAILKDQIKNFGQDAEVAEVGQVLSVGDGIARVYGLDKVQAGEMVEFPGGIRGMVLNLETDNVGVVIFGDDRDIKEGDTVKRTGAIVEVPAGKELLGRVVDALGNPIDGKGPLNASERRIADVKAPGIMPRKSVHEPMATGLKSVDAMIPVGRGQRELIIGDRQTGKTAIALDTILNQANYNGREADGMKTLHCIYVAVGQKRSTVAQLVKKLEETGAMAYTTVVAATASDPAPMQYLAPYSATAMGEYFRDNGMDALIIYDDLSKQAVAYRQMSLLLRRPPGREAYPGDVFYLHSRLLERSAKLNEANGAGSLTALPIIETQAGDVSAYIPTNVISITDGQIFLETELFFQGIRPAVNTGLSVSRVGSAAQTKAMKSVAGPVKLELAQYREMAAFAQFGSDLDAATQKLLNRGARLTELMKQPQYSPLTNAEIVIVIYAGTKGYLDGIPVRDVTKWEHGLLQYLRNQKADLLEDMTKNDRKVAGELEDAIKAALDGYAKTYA
Sequence of PdF1 γCC (PdF1) (A1B8N9 whole entry Q115C/D214C partner): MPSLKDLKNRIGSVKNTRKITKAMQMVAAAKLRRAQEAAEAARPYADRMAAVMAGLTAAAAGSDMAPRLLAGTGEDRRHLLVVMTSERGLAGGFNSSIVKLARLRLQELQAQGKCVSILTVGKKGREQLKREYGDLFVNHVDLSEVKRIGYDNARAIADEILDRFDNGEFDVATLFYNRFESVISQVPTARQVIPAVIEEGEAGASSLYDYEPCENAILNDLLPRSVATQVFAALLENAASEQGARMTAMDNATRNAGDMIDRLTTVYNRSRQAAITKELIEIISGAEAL
Sequence of PdF1 γCC (PdF1) (A1B8N7 whole entry partner): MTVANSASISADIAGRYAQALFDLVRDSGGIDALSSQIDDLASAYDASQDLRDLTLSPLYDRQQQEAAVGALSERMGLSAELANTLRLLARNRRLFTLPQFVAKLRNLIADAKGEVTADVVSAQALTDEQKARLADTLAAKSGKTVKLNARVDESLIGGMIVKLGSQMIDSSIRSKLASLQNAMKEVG
Sequence of PdF1 γCC (PdF1) (A1B8P1 whole entry partner): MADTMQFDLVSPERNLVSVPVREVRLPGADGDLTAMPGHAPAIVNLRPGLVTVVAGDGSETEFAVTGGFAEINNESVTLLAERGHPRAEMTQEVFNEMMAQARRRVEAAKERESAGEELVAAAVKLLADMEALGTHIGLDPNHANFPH

How did the “single-molecule rotation assay, Mg-ADP inhibited pauses” value turn out when Nc1ncnc2c1ncn2[C@@H]1O[C@H](COP(=O)(O)OP(=O)(O)O)[C@@H](O)[C@H]1O [ADP] was run?
Its value is “supporting the conclusion that they are a result of Mg-ADP inhibition”.
